Laboratory results as given in patent US8192962B2, “Processes for detecting toxic substances” (Daikin Industries, Ltd., priority 2001, dated 2012).

Test system: Stress protein genes
Assay: DNA chip mRNA expression in yeast, stress protein genes (Table 6)
Type: cell-based, Saccharomyces cerevisiae S288C
Description: Yeast (Saccharomyces cerevisiae S288C (α SUC2mal mel gap2 CUP1)) were incubated at 25° C. on YPD medium (yeast extract 1%, polypepton 2%, glucose 2%). One of toxic chemical substances was added to the cells at logarithmic growth phase, and the cells were further incubated for two hours. Cells were cultured without any chemical substance in the same condition, and were used as control. Concentrations of the chemical substances were defined to inhibit the growth of the yeast but not lead to death.
After completion of the incubation, the culture was centrifuged to collect the cells. To the cells, sodium acetate buffer (50 mM sodium acetate, 10 mM EDTA, 1% SDS) was added, and the mixture was shaken at 65° C. for five minutes, followed by returning to room temperature, and obtaining the supernatant, of which the procedures were repeated two times. To the supernatant, ½ amount of a solution of phenol/chloroform was added, and the mixture was centrifuged to give a supernatant, which was added with an equal amount of chloroform, and the mixture was centrifuged to give a supernatant. To the supernatant, an equal amount of isopropanol containing 0.3 M sodium acetate was added, and the mixture was allowed to stand at room temperature for 30 minutes, after which the mixture was centrifuged to give a sediment of the whole RNAs. Seventy % ethanol was added to the sediment, and the mixture was again centrifuged to give a sediment, which was then dried and dissolved in water. mRNA was isolated from the whole RNAs as followings. In view of the fact that a poly A chain is attached to the 3′ terminus of mRNA, a polynucleotide having a poly T structure which was immobilized on the surface of latex beads was used to trap the mRNA, and then the mRNA was washed and eluted with spine column (Oligotex-dT30<Super>mRNA Purification Kit, Takara). Reverse transcription of the mRNA was conducted with a reverse transcriptase (Super Script II Reverse Transcriptase; catalogue No. 18064-014, GibcoBRL) using fluorescence-labeled nucleotides to give cDNAs that were introduced with Cy3-dUTP or Cy5-dUTP during the reverse transcription.
The labeled cDNAs were dissolved in TE buffer (10mM Tris-HCl/1 mM EDTA, pH8.0), and the solution was dropped on the DNA chip containing the whole genes of yeast (DNA Chip Research Inc. Japan) so that the cDNAs were hybridized on the DNA chip at 65° C. for over 12 hours. The fluoresces intensity of the DNA chip was read with a scanner, and the ratio relative to the fluorescence intensity resulting from the absence of chemical substance was estimated as the following, which is shown in Tables 1 to 9: […]

CCCCCCCCCCCCOS(=O)(=O)[O-].[Na+] [(18), sodium lauryl sulfate]
The level of expressed mRNA in the presence of chemical substance/The level of expressed mRNA in the absence of chemical substance (yeast gene YAL005C): 0.5
The level of expressed mRNA in the presence of chemical substance/The level of expressed mRNA in the absence of chemical substance (yeast gene YAL015C): 1.2
The level of expressed mRNA in the presence of chemical substance/The level of expressed mRNA in the absence of chemical substance (yeast gene YBL075C): 0.7
The level of expressed mRNA in the presence of chemical substance/The level of expressed mRNA in the absence of chemical substance (yeast gene YBL093C): 1.3
The level of expressed mRNA in the presence of chemical substance/The level of expressed mRNA in the absence of chemical substance (yeast gene YBR044C): 1.3
The level of expressed mRNA in the presence of chemical substance/The level of expressed mRNA in the absence of chemical substance (yeast gene YBR054W): 0.7
The level of expressed mRNA in the presence of chemical substance/The level of expressed mRNA in the absence of chemical substance (yeast gene YBR067C): 0.4
The level of expressed mRNA in the presence of chemical substance/The level of expressed mRNA in the absence of chemical substance (yeast gene YBR072W): 2.2
The level of expressed mRNA in the presence of chemical substance/The level of expressed mRNA in the absence of chemical substance (yeast gene YBR126C): 1.3
The level of expressed mRNA in the presence of chemical substance/The level of expressed mRNA in the absence of chemical substance (yeast gene YBR169C): 1.6
The level of expressed mRNA in the presence of chemical substance/The level of expressed mRNA in the absence of chemical substance (yeast gene YCL035C): 4.2
The level of expressed mRNA in the presence of chemical substance/The level of expressed mRNA in the absence of chemical substance (yeast gene YCR021C): 0.8
The level of expressed mRNA in the presence of chemical substance/The level of expressed mRNA in the absence of chemical substance (yeast gene YCR060W): 1.7
The level of expressed mRNA in the presence of chemical substance/The level of expressed mRNA in the absence of chemical substance (yeast gene YCR083W): 1.3
The level of expressed mRNA in the presence of chemical substance/The level of expressed mRNA in the absence of chemical substance (yeast gene YDL022W): 1.4
The level of expressed mRNA in the presence of chemical substance/The level of expressed mRNA in the absence of chemical substance (yeast gene YDL025C): 1.4
The level of expressed mRNA in the presence of chemical substance/The level of expressed mRNA in the absence of chemical substance (yeast gene YDR033W): 1.0
The level of expressed mRNA in the presence of chemical substance/The level of expressed mRNA in the absence of chemical substance (yeast gene YDR077W): 1.1
The level of expressed mRNA in the presence of chemical substance/The level of expressed mRNA in the absence of chemical substance (yeast gene YDR098C): 1.2
The level of expressed mRNA in the presence of chemical substance/The level of expressed mRNA in the absence of chemical substance (yeast gene YDR155C): 2.5
The level of expressed mRNA in the presence of chemical substance/The level of expressed mRNA in the absence of chemical substance (yeast gene YDR258C): 1.3
The level of expressed mRNA in the presence of chemical substance/The level of expressed mRNA in the absence of chemical substance (yeast gene YDR293C): 1.3
The level of expressed mRNA in the presence of chemical substance/The level of expressed mRNA in the absence of chemical substance (yeast gene YDR436W): 1.2
The level of expressed mRNA in the presence of chemical substance/The level of expressed mRNA in the absence of chemical substance (yeast gene YDR513W): 3.2
The level of expressed mRNA in the presence of chemical substance/The level of expressed mRNA in the absence of chemical substance (yeast gene YDR519W): 2.4
The level of expressed mRNA in the presence of chemical substance/The level of expressed mRNA in the absence of chemical substance (yeast gene YEL030W): 0.6
The level of expressed mRNA in the presence of chemical substance/The level of expressed mRNA in the absence of chemical substance (yeast gene YEL039C): 1.1
The level of expressed mRNA in the presence of chemical substance/The level of expressed mRNA in the absence of chemical substance (yeast gene YER042W): 1.1
The level of expressed mRNA in the presence of chemical substance/The level of expressed mRNA in the absence of chemical substance (yeast gene YER057C): 1.8
The level of expressed mRNA in the presence of chemical substance/The level of expressed mRNA in the absence of chemical substance (yeast gene YER103W): 0.6
The level of expressed mRNA in the presence of chemical substance/The level of expressed mRNA in the absence of chemical substance (yeast gene YER125W): 1.0
The level of expressed mRNA in the presence of chemical substance/The level of expressed mRNA in the absence of chemical substance (yeast gene YFL014W): 8.8
The level of expressed mRNA in the presence of chemical substance/The level of expressed mRNA in the absence of chemical substance (yeast gene YFL016C): 0.9
The level of expressed mRNA in the presence of chemical substance/The level of expressed mRNA in the absence of chemical substance (yeast gene YFL020C): 0.9
The level of expressed mRNA in the presence of chemical substance/The level of expressed mRNA in the absence of chemical substance (yeast gene YFR052W): 1.9
The level of expressed mRNA in the presence of chemical substance/The level of expressed mRNA in the absence of chemical substance (yeast gene YGL073W): 1.2
The level of expressed mRNA in the presence of chemical substance/The level of expressed mRNA in the absence of chemical substance (yeast gene YGL115W): 1.2
The level of expressed mRNA in the presence of chemical substance/The level of expressed mRNA in the absence of chemical substance (yeast gene YGL181W): 1.3
The level of expressed mRNA in the presence of chemical substance/The level of expressed mRNA in the absence of chemical substance (yeast gene YGR088W): 2.0
The level of expressed mRNA in the presence of chemical substance/The level of expressed mRNA in the absence of chemical substance (yeast gene YHL028W): 2.5
The level of expressed mRNA in the presence of chemical substance/The level of expressed mRNA in the absence of chemical substance (yeast gene YHL046C): 0.9
The level of expressed mRNA in the presence of chemical substance/The level of expressed mRNA in the absence of chemical substance (yeast gene YHR030C): 1.8
The level of expressed mRNA in the presence of chemical substance/The level of expressed mRNA in the absence of chemical substance (yeast gene YHR057C): 1.3
The level of expressed mRNA in the presence of chemical substance/The level of expressed mRNA in the absence of chemical substance (yeast gene YHR104W): 1.9
The level of expressed mRNA in the presence of chemical substance/The level of expressed mRNA in the absence of chemical substance (yeast gene YIL011W): 0.8
